Row | Compound | logP
1 | COc1ncnc2c1ncn2[C@@H]1O[C@H](COC(=O)C(C)(C)C)[C@@H](O)[C@@H]1OC(=O)C(C)(C)C | 3.4
2 | COc1ncnc2c1ncn2[C@@H]1O[C@H](COC(C)=O)[C@@H](OC(C)=O)[C@@H]1O | 1.75
3 | COc1ncnc2c1ncn2[C@@H]1O[C@H](CO)[C@@H](OC(=O)Cc2ccccc2)[C@@H]1OC(=O)Cc1ccccc1 | 3.48
4 | CCCC(=O)OC[C@H]1O[C@@H](n2cnc3c(OC)ncnc32)[C@@H](O)[C@@H]1OC(=O)CCC | 3.67
5 | COc1ncnc2c1ncn2[C@@H]1O[C@H](COC(=O)Cc2ccccc2)[C@@H](OC(=O)Cc2ccccc2)[C@@H]1O | 4.37
6 | CCCCC(=O)O[C@H]1[C@H](OC(=O)CCCC)[C@@H](CO)O[C@H]1n1cnc2c(OC)ncnc21 | 3.83
7 | CCCC(=O)OC1C(CO)OC(n2cnc3c(OC)ncnc32)C1OC(=O)CCC (stereo not given) | 2.9
8 | COc1ncnc2c1ncn2[C@@H]1O[C@H](COC(=O)C(C)C)[C@@H](O)[C@@H]1OC(=O)C(C)C | 2.7
9 | CCC(=O)OC[C@H]1O[C@@H](n2cnc3c(OC)ncnc32)[C@@H](OC(=O)CC)[C@@H]1OC(=O)CC | 2.75
10 | COc1ncnc2c1ncn2[C@@H]1O[C@H](COS(C)(=O)=O)[C@@H](OS(C)(=O)=O)[C@@H]1OS(C)(=O)=O | 0.58
11 | CCCCC(=O)OC[C@H]1O[C@@H](n2cnc3c(OC)ncnc32)[C@@H](OC(=O)CCCC)[C@@H]1O | 3.58
12 | COc1ncnc2c1ncn2[C@@H]1O[C@H](COC(=O)COc2ccccc2)[C@@H](OC(=O)COc2ccccc2)[C@@H]1O | 4.06
13 | CCC(=O)O[C@H]1[C@H](OC(=O)CC)[C@@H](CO)O[C@H]1n1cnc2c(OC)ncnc21 | 2.07
14 | COc1ncnc2c1ncn2[C@@H]1O[C@H](CO)[C@@H](OC(=O)C(C)(C)C)[C@@H]1OC(=O)C(C)(C)C | 3.61
15 | CCC(=O)OC[C@H]1O[C@@H](n2cnc3c(OC)ncnc32)[C@@H](O)[C@@H]1OC(=O)CC | 2.7
16 | COc1ncnc2c1ncn2[C@@H]1O[C@H](CO)[C@@H](OC(=O)c2ccccc2)[C@@H]1OC(=O)c1ccccc1 | 3.71
17 | COc1ncnc2c1ncn2[C@@H]1O[C@H](CO)[C@@H](OC(C)=O)[C@@H]1OC(C)=O | 1.33
18 | COc1ncnc2c1ncn2[C@@H]1O[C@H](CO)[C@@H](OC(=O)COc2ccccc2)[C@@H]1OC(=O)COc1ccccc1 | 3.4
19 | COc1ncnc2c1ncn2[C@@H]1O[C@H](COC(=O)c2ccccc2)[C@@H](O)[C@@H]1OC(=O)c1ccccc1 | 3.39
20 | COc1ncnc2c1ncn2[C@@H]1O[C@H](CO)[C@@H](O)[C@@H]1O | 0.5
21 | COc1ncnc2c1ncn2[C@@H]1O[C@H](CO)[C@@H](OC(=O)C(C)C)[C@@H]1OC(=O)C(C)C | 2.82
22 | COc1ccc(C(=O)OC[C@H]2O[C@@H](n3cnc4c(OC)ncnc43)[C@@H](OC(=O)c3ccc(OC)cc3)[C@@H]2O)cc1 | 3.65
23 | COc1ncnc2c1ncn2[C@@H]1O[C@H](COC(=O)C(C)C)[C@@H](OC(=O)C(C)C)[C@@H]1O | 3.63
24 | COc1ncnc2c1ncn2[C@@H]1O[C@H](COC(C)=O)[C@@H](O)[C@@H]1OC(C)=O | 1.4
25 | COc1ncnc2c1ncn2[C@@H]1O[C@H](COC(C)=O)[C@@H](OC(C)=O)[C@@H]1OC(C)=O | 1.93

Reference: the SangsterLogP compilation
